These results are taken from patent US6897219B2, “Heteroaryl diazacycloalkanes, their preparation and use” (priority 1997, dated 2005).

Where a name gives a salt, the structure may show the parent alone.

The melting point is the temperature, or range, at which the solid turns liquid. As for `c1ncc(N2CCCNCC2)cc1OCC1CCCCC1` (as salt: fumaric acid salt), the melting point fell in the range of 163.3 to 164.5 °C. `CCCCOc1cncc(N2CCN(C)CC2)c1` (as salt: fumaric acid salt) showed a melting point of 136.9 to 139.2 °C. In turn, `CN1CCCN(c2cncc(-c3cccnc3)c2)CC1` (as salt: fumaric acid salt) [Compound 19E, 4-Methyl-1-[5-(3-pyridyl)-3-pyridyl]-homopiperazine] returned a melting point of 165.5 to 167.5 °C. In turn, `CCCCOc1cncc(N2CCNCC2)c1` (as salt: fumaric acid salt) [Compound 2D, 1-(5-Butoxy-3-pyridyl)piperazine] had a melting point of 149.4 to 151.7 °C. Consider `CCOc1cncc(N2CCCNCCC2)c1` (as salt: fumaric acid salt), for which the melting point is 162.5 to 164.5 °C.

The compound `Nc1cccc(N2CCCNCC2)c1` (as salt: fumaric acid salt) had a melting point of 165.4 to 167.7 °C. In turn, `CCN1CCCN(c2cccnc2)CC1` (as salt: fumaric acid salt) had a melting point of 145.3 to 147.5 °C. `CC(C)COc1cncc(N2CCCNCC2)c1` (as salt: fumaric acid salt) [Compound 6H, 1-[5-(2-Methyl-propoxy)-3-pyridyl]-homopiperazine] registered a melting point of 121.9 to 123.3 °C. For `CC(C)CCOc1cncc(N2CCCN(C)CC2)c1` (as salt: fumaric acid salt) [Compound 12E, 4-Methyl-1-[5-(3-methyl-butoxy)-3-pyridyl]-homopiperazine], the melting point is 130.4 to 131.9 °C.

`C#Cc1cncc(N2CCCNCC2)c1` (as salt: fumaric acid salt): the melting point lay in the range of 172.5 to 174 °C. `Cc1ccc(N2CCCN(C)CC2)nn1` (as salt: fumaric acid salt) displayed a melting point of 152 to 153 °C.

For the compound `c1ncc(N2CCCNCC2)cc1OCC1CC1` (as salt: fumaric acid salt) [Compound 9H, 1-(5-Cyclopropylmethoxy-3-pyridyl)-homopiperazine], the melting point was 154 to 156 °C.

In turn, `CC(C)COc1cncc(N2CCCN(C)CC2)c1` (as salt: fumaric acid salt) [Compound 8E, 4-Methyl-1-[5-(2-methyl-propyloxy)-3-pyridyl]-homopiperazine] returned a melting point of 145.7 to 146.9 °C.

The compound `Cc1ccc(N2CCCNCC2)nn1` (as salt: fumaric acid salt) [Compound 5K, 1-(6-Methyl-3-pyridazinyl)-homopiperazine] had a melting point of 102 to 105 °C. Under `COc1cncc(N2CCCNC(C)CC2)c1` (stereo not shown) (as salt: fumaric acid salt) [Compound 11A] stands 137 to 139 °C; under `CC(C)CCOc1cncc(N2CCCNCC2)c1` (as salt: fumaric acid salt), 139.9 to 142 °C; under `Clc1ccc(N2CCCCNCC2)nn1` (as salt: fumaric acid salt) [Compound 8B, 1-(6-Chloro-3-pyridazinyl)-1,4-diazacyclooctane], 177 to 179 °C. With `CN1CCCN(c2ccc(Cl)nn2)CC1` (as salt: fumaric acid salt), the melting point lay in the range of 171 to 172 °C. Compound `COc1ccc(N2CCCNCC2)cn1` (as salt: fumaric acid salt) had a melting point of 127 to 128 °C. Compound `c1ccc2c(c1)ccn2-c1cncc(N2CCCNCC2)c1` (as salt: fumaric acid salt) came in with a melting point of 193 to 195 °C. To `CCOc1cncc(N2CCCNCC2)c1` (as salt: fumaric acid salt) [Compound 3H, 1-(5-Ethoxy-3-pyridyl)-homopiperazine] belongs 157.5 to 159 °C; to `COc1cc(N2CCCNCC2)cnc1Cl` (as salt: fumaric acid salt) [Compound 5F, 1-(6-Chloro-5-methoxy-3-pyridyl)-homopiperazine], 196 to 197 °C; to `CN1CCN(c2cnc3ccccc3c2)CC1`, 116.5 to 117 °C. Turning to `O=[N+]([O-])c1cccc(N2CCCNCC2)c1` (as salt: fumaric acid salt), the melting point fell in the range of 163.1 to 164.4 °C.

`CCCCCOc1cncc(N2CCCN(C)CC2)c1` (as salt: fumaric acid salt) [Compound 15E, 4-Methyl-1-(5-pentyloxy-3-pyridyl)-homopiperazine] gave a melting point of 129 to 130.8 °C.

Compound `CN1CCCN(c2cccc([N+](=O)[O-])c2)CC1` registered a melting point of 163.1 to 164.4 °C.

Regarding `CC1CCN(c2ccc(Cl)nn2)CCCN1` (stereo not shown) (as salt: fumaric acid salt), the melting point fell in the range of 166 to 168 °C. `CCCCOc1cncc(N2CCCN(C)CC2)c1` (as salt: fumaric acid salt) [Compound 6E, 1-(5-Butoxy-3-pyridyl)-4-methyl-homopiperazine] showed a melting point of 127 to 129 °C.

`Oc1cncc(N2CCCNCC2)c1` (as salt: hydrochloric acid salt) came in with a melting point of 290 to 300 °C. For the compound `O=S(=O)(Oc1cncc(N2CCCNCC2)c1)C(F)(F)F` (as salt: fumaric acid salt), the melting point lay within 154 to 156 °C.

Turning to `COc1cncc(N2CCCNCC2)c1` (as salt: fumaric acid salt) [Compound 1H, 1-(5-Methoxy-3-pyridyl)-homopiperazine], the melting point lay in the range of 161 to 162 °C. For `CCCOc1cncc(N2CCCNCCC2)c1` (as salt: fumaric acid salt), the melting point was 150 to 152 °C. `c1ccc(CN2CCCN(c3cccnc3)CC2)cc1` (as salt: fumaric acid salt): the melting point fell in the range of 148.4 to 149 °C. The compound `Clc1cncc(N2CCNCC2)c1` (as salt: fumaric acid salt) [Compound 4B, 1-(5-Chloro-3-pyridyl)-piperazine] gave a melting point of 195 to 196 °C. In turn, `COc1cncc(N2CCCN(C)CC2)c1` (as salt: fumaric acid salt) [Compound 3E, 1-(5-Methoxy-3-pyridyl)-4-methyl-homopiperazine] registered a melting point of 145 to 147 °C. Under `c1ccc2ncc(N3CCCNCC3)cc2c1` (as salt: fumaric acid salt) [Compound 2F, 1-(3-Quinolinyl)-homopiperazine] stands 181 to 182 °C; under `Cc1cnc(C)c(N2CCCNCC2)n1` (as salt: fumaric acid salt), 149 to 151 °C. To `CN1CCCN(c2cncc(-c3ccccc3)c2)CC1` (as salt: fumaric acid salt) [Compound 5E, 4-Methyl-1-(5-phenyl-3-pyridyl)-homopiperazine] belongs 161 to 162 °C. In the case of `Clc1ccc(N2CCCNCC2)nn1` (as salt: fumaric acid salt) [Compound 1K, 1-(6-Chloro-3-pyridazinyl)-homopiperazine], the melting point was in the range of 165 to 166 °C. Turning to `CN1CCCN(c2cncc(SCc3ccccc3)c2)CC1` (as salt: fumaric acid salt) [Compound 18E, 4-Methyl-1-(5-thiobenzyl-3-pyridyl)-homopiperazine], the melting point was 131 to 133 °C. In turn, `C=COc1cncc(N2CCCNCC2)c1` (as salt: fumaric acid salt) had a melting point of 143 to 144 °C. For `c1cncc(N2CCNCC2)c1` (as salt: fumaric acid salt) [Compound 1B, 1-(3-Pyridyl)-piperazine], the melting point fell in the range of 161.7 to 164.8 °C.

In turn, `c1ccn(-c2cncc(N3CCCNCC3)c2)c1` (as salt: fumaric acid salt) gave a melting point of 174 to 175 °C. `COc1cncc(N2CCN(C)C2)c1` (as salt: fumaric acid salt) [Compound 1M, 1-(5-Methoxy-3-pyridyl)-3-methyl-imidazolidine] had a melting point of 139 to 142 °C.

Take `CCOc1cncc(N2CCCN(C)CC2)c1` (as salt: fumaric acid salt) [Compound 4E, 1-(5-Ethoxy-3-pyridyl)-4-methyl-homopiperazine]: the melting point lay within 150 to 152 °C. As to `COCCOc1cncc(N2CCCNCC2)c1` (as salt: fumaric acid salt) [Compound 5H, 1-(5-Methoxyethoxy-3-pyridyl)-homopiperazine], the melting point was 126 to 127 °C. For `C=COc1cncc(N2CCCNCCC2)c1` (as salt: fumaric acid salt), the melting point fell in the range of 142 to 144 °C. `CCCCCCOc1cncc(N2CCCNCC2)c1` (as salt: fumaric acid salt) registered a melting point of 149.5 to 151.8 °C.

Compound `COc1cnc(Cl)c(N2CCCNCC2)c1` (as salt: fumaric acid salt) returned a melting point of 117 to 118 °C. To `CCOc1cc(N2CCCNCC2)cnc1Br` (as salt: fumaric acid salt) belongs 181.7 to 183.2 °C; to `c1ccc(-c2cncc(N3CCNCC3)c2)cc1` (as salt: fumaric acid salt), 167.5 to 168.5 °C; to `Clc1ccc(N2CCCNCCC2)nn1` (as salt: fumaric acid salt) [Compound 7B, 1-(6-Chloro-3-pyridazinyl)-1,5-diazacyclooctane], 176 to 178 °C.

In the case of `CCCCCCCOc1cncc(N2CCCN(C)CC2)c1` (as salt: fumaric acid salt) [Compound 16E, 1-(5-Heptyloxy-3-pyridyl)-4-methyl-homopiperazine], the melting point was 120.2 to 121.8 °C. Consider `CN1CCCN(c2cncc(OC3CCCC3)c2)CC1` (as salt: fumaric acid salt) [Compound 25E, 1-(5-Cyclopentyloxy-3-pyridyl)-4-methyl-homopiperazine], for which the melting point lay within 123 to 125 °C. The compound `COc1cncc(N2CCCN(C)C2)c1` (as salt: fumaric acid salt) [Compound 2M, 1-(5-Methoxy-3-pyridyl)-3-methyl-1,3-diazacyclohexane] had a melting point of 149 to 151 °C. With `CCCOc1cncc(N2CCCNCC2)c1` (as salt: fumaric acid salt) [Compound 10H, 1-(5-Propyloxy-3-pyridyl)-homopiperazine], the melting point lay within 156.2 to 157.8 °C.

`CCCCOc1cncc(N2CCCNCC2)c1` (as salt: fumaric acid salt) showed a melting point of 150 to 151 °C. `CN1CCCN(c2cccnn2)CC1` (as salt: fumaric acid salt): the melting point lay within 137.8 to 139.3 °C.
